Read-outs that look alike come from different tables or passages of the source. Marks after values point to notes of the source that are not given here.
Legend:
M. tuberculosis [1] = experiment: Minimum inhibitory concentration in liquid medium (axenic culture); type: cell-based, Mycobacterium tuberculosis; details: Mycobacterium tuberculosis; for IC50: read-out: Anti-tubercular activity in axenic culture IC50
RAW264.7 cells = experiment: Macrophage viability in the same high content assay; details: for Intracellular RAW TC50 / Intracellular activity Cytotoxicity TC50: infected RAW264.7 macrophages; for Intracellular RAW TC50: SAR tables 4-8; for Intracellular activity Cytotoxicity TC50: 72 h; for selectivity index (TC50/IC50): macrophage TC50 / intracellular IC50
M. tuberculosis [2] = experiment: High content assay of intracellular M. tuberculosis growth in infected RAW264.7 macrophages; type: cell-based, Mycobacterium tuberculosis H37Rv-LP
Method: Compounds were obtained in 384-well plates as 10 mM DMSO stock solutions and tested as described ([Manning et al., 2017]). Briefly, assay plates were prepared in clear bottom, black 384-well plates with 30 μl cRPMI and 0.6 μl compound in columns 3–22 (final concentration of 10 μM compound, 1% DMSO). […] INH and STA were also included in dose response on each plate. RAW264.7 cells were infected with M. tuberculosis DREAM8 as described ([Manning et al., 2017]) at an MOI of 1 for 24 h and extracellular bacteria removed by washing. Cells were recovered using Accumax, harvested, washed and resuspended in serum-free RPMI; 30 μl of infected cells were dispensed into each well at 3,300 cells/well. Plates were incubated for 72 h, 10 μl of 5X SYBR Green I was added and plates were imaged with an ImageXpress Micro High Content Screening System (Molecular Devices) using a ×4 objective and FITC and Texas Red channels. MetaXpress was used to analyze images. The integrated intensity of M. tuberculosis or macrophages was calculated for each well. Growth inhibition was calculated for each test well by normalizing to the average integrated intensity of the DMSO control wells. IC50 was calculated as the compound concentration required to reduce bacterial growth by 50%. TC50 was calculated as the compound concentration required to reduce macrophage viability by 50%.

[3] = HepG2 cytotoxicity (CellTiter-Glo, 72 h); type: cell-based, human; details: human
Method: (§1) Cytotoxicity against HepG2 cells was measured after 72 h. Cells were seeded in 384-well plates at 1,800 cells per well. Compounds were added as a 10-point three-fold serial dilution after 24 h (final assay concentration of 1% DMSO). CellTiter-Glo® reagent (Promega) was added and relative luminescence units (RLU) measured. Data were normalized to the DMSO controls. Curves were fitted using the Levenberg–Marquardt algorithm; TC50 was calculated as the compound concentration required to reduce cell viability by 50%.
(§2) We further evaluated cytotoxicity using the HepG2 cell line cultured with either glucose or galactose in the medium (Table 2). HepG2 cells cultured with galactose rely on mitochondrial oxidative phosphorylation rather than glycolysis which increases their susceptibility to mitochondrial toxicants allowing us to identify compounds with mitochondrial toxicity ([Kamalian et al., 2015]).

HepG2 cells = experiment: HepG2 cytotoxicity (CellTiter-Glo, 72 h); type: cell-based, human; details: for HepG2 cytotoxicity TC50 Galactose / HepG2 cytotoxicity TC50 Glucose: human, 72 h
Method: as §1, §2

[4] = axenic culture, SAR tables 4-8, read-out: Extracellular IC90
[5] = Mycobacterium tuberculosis, RAW264.7, in RAW264.7 macrophages, SAR tables 4-8, read-out: Intracellular Mtb IC50
[6] = HepG2 cytotoxicity IC50 Galactose
[7] = HepG2 cytotoxicity IC50 Glucose
[8] = 120 h, extracellular, 5 days, OD590
[9] = 120 h, extracellular, 5 days, OD590, read-out: Anti-tubercular activity in axenic culture IC90
[10] = Mycobacterium tuberculosis, RAW264.7, 72 h, M. tuberculosis in RAW264.7 cells, MOI 1, 72 h, read-out: Intracellular activity Anti-tubercular activity IC50
[11] = in RAW264.7 macrophages, SAR tables 4-8, read-out: Intracellular Mtb IC50
[12] = Mycobacterium tuberculosis, RAW264.7, read-out: Intracellular Mtb IC50, in RAW264.7 macrophages, SAR tables 4-8

Compound	IC90 (M. tuberculosis [1]; [4])	Intracellular RAW TC50 (RAW264.7 cells)	activity against intracellular M. tuberculosis (M. tuberculosis [2])	IC50 (M. tuberculosis [2]; [5])	IC50 at 72 h [3, 6]	IC50 at 72 h [3, 7]	IC50 (M. tuberculosis [1]; [8])	IC90 (M. tuberculosis [1]; [9])	Intracellular activity Cytotoxicity TC50 (RAW264.7 cells)	IC50 (M. tuberculosis [2]; [10])	HepG2 cytotoxicity TC50 Galactose (HepG2 cells)	HepG2 cytotoxicity TC50 Glucose (HepG2 cells)	selectivity index (TC50/IC50) (RAW264.7 cells)	IC50 (M. tuberculosis [2]; [11])	IC50 (M. tuberculosis [2]; [12])	Intracellular RAW TC50 (RAW264.7 cells; listed as 17)	ratio of TC50glu/TC50gal (HepG2 cells; HepG2, glucose vs galactose)
O=C(CSc1ccccn1)Nc1ccc(F)c(F)c1 [TPN-0006203]	> 20 µM	>100 ^b µM	good intracellular activity	7.8 ± 1.6 µM	> 100 µM	> 100 µM	–	–	–	–	–	–	–	–	–	–	–
CCc1ccc(OCC(=O)Nc2cccc3c2C(=O)OC3)cc1 [TPN-0006204]	> 20 µM	>100 ^a µM	–	10 ± 0.5 µM	47 ± 17 µM	59 ± 10 µM	> 20 µM	> 20 µM	>100 ^b µM	11 ± 0.5 µM	47 ± 17 ^e µM	59 ± 10 ^d µM	–	–	–	–	–
O=C(CSc1ccccc1)Nc1ccc(Br)cc1 [TPN-0006205]	> 20 µM	57 ± 24 ^c µM	good intracellular activity	1.4 ± 0.6 µM	> 100 µM	> 100 µM	> 20 µM	> 20 µM	57 ± 23 ^c µM	1.4 ± 0.64 µM	>100 ^c µM	>100 ^e µM	40	–	–	–	–
Cc1ccc(SCC(=O)Nc2ccc(Br)c(C)c2)cc1 [TPN-0006207]	> 20 µM	>100 ^b µM	good intracellular activity	6.3 ± 0.3 µM	> 100 µM	> 100 µM	> 20 µM	> 20 µM	>100 ^b µM	6.3 ± 0.3 µM	>100 ^b µM	>100 ^b µM	–	–	–	–	–
O=C(COc1ccccc1)NC12CC3CC(CC(C3)C1)C2 [TPN-0006211]	> 20 µM	38 ± 6.0 ^b µM	–	7.6 ± 3.5 µM	43 ± 1 µM	53 ± 1.5 µM	> 20 µM	> 20 µM	38 ± 6.0 ^b µM	7.6 ± 3.5 µM	43 ± 1 ^b µM	53 ± 1.5 ^b µM	–	–	–	–	–
O=C(COc1ccc2ccccc2c1)Nc1ccncc1 [TPN-0006212]	> 20 µM	>100 ^b µM	–	8.2 ± 1.7 µM	61 ± 4 µM	> 100 µM	–	–	–	–	–	–	–	–	–	–	–
Cc1cc(OCC(=O)N2CCC(C)CC2)ccc1Br [TPN-0006213]	> 20 µM	75 ± 16 ^b µM	–	6.6 ± 1.6 µM	55 ± 5 µM	93 ± 3.5 µM	–	–	–	–	–	–	–	–	–	–	–
O=C(COc1ccc(Br)cc1)N1CCN(c2ccccc2F)CC1 [TPN-0006215]	> 20 µM	60 ± 27 ^b µM	–	12 ± 1.6 µM	57 ± 3 µM	96 ± 2.5 µM	–	–	–	–	–	–	–	–	–	–	–
CC(C)c1ccc(OCC(=O)Nc2nccs2)cc1 [TPN-0006217]	> 20 µM	–	–	–	64 ± 1.5 µM	91 ± 3 µM	> 20 µM	> 20 µM	75 ± 16 ^d µM	4.9 ± 2.1 µM	64 ± 1.5 ^b µM	91 ± 3 ^b µM	–	–	–	–	–
COCc1cc(C)nc2sc(C(=O)Nc3cccc(Cl)c3)c(N)c12 [TPN-0073022]	> 20 µM	15 ± 9 ^b µM	not active	> 100 µM	64 µM	51 µM	–	–	–	–	–	–	–	–	–	–	–
COCc1cc(C)nc2sc(C(=O)c3ccccc3)c(N)c12 [TPN-0073023]	> 20 µM	67 ± 18 ^d µM	–	17 ± 6.5 µM	49 µM	68 ± 1 µM	–	–	–	–	–	–	–	–	–	–	–
Nc1c(C(=O)N2CCCCC2)sc2nc3c(cc12)CCCC3 [TPN-0073024]	> 20 µM	>100 ^b µM	–	62 ± 31 µM	> 100 µM	> 100 µM	–	–	–	–	–	–	–	–	–	–	–
CCN(CC)C(=O)c1sc2nc(-c3ccccc3)ccc2c1N [TPN-0073025]	> 20 µM	30 ± 6.6 ^f µM	weak activity	< 10 µM	42 µM	61 ± 48 µM	–	–	–	–	–	–	–	9 ± 6.6 µM	–	–	–
Nc1c(C(=O)c2ccc(F)cc2)sc2nc(-c3ccccc3)cc(-c3ccccc3)c12 [TPN-0073026]	> 20 µM	>100 ^a µM	not active	> 100 µM	> 100 µM	> 100 µM	–	–	–	–	–	–	–	–	–	–	–
Nc1c(C(=O)N2CCCC2)sc2nc(-c3ccccc3)ccc12 [TPN-0073027]	> 20 µM	>100 ^g µM	–	< 10 µM	64 ± 12 µM	72 ± 22 µM	> 20 µM	> 20 µM	>100e µM	5.8 ± 2.1 µM	64 ± 10 ^e µM	82 ± 25 ^d µM	–	6.8 ± 3.3 µM	–	–	–
Nc1c(C(=O)Nc2nccs2)sc2nc3c(cc12)CCC3 [TPN-0073030]	> 20 µM	>100 ^c µM	–	–	> 100 µM	> 100 µM	–	–	–	–	–	–	–	–	1.1 µM	–	–
Cc1cc(C)nc(NC(=N)Nc2ccc(Br)cc2)n1 [TPN-0073061]	8.2 ± 0.1 µM	18 ± 4.3 ^d µM	–	–	22 ± 3.1 µM	212 ± 4 µM	6.3 ± 0.15 µM	8.2 ± 0.1 µM	18 ± 4.3 ^d µM	1.3 ± 0.15 µM	22 ± 3.1 ^c µM	22 ± 4.0 ^c µM	14	–	1.3 ± 0.1 µM	–	–
CCOc1ccc(NC(=S)Nc2ccccc2)cc1 [TPN-0073062]	> 20 µM	>100 ^d µM	–	–	> 100 µM	> 100 µM	11 ± 5.3 µM	> 20 µM	>100 ^d µM	0.39 ± 0.13 µM	>100 ^e µM	>100 ^e µM	> 250	–	0.4 ± 0.1 µM	–	–
O=C(Nc1ccc(C(F)(F)F)cc1)Nc1cccc(Cl)c1 [TPN-0073070]	15 µM	1.8 ± 0.5 ^b µM	–	0.7 ± 0.2 µM	5.5 µM	5.6 µM	–	–	–	–	–	–	–	–	–	1.8 µM	–
Cc1c(Cc2ccccc2)sc(NC(=O)c2ccccc2Cl)c1C(N)=O [TPN-0073560]	> 20 µM	23 ± 4.7 ^d µM	–	–	42 ± 3.3 µM	> 100 µM	> 20 µM	> 20 µM	23 ± 4.7 ^d µM	–	42 ± 3.3 ^c µM	>100 ^b µM	–	–	–	–	~4
OCc1cn(-c2ccccc2)nc1-c1ccc(Br)cc1 [TPN-0073563]	–	28 ± 7.0 ^e µM	–	4.3 ± 1.5 µM	35 ± 3.7 µM	34 µM	–	–	28 ± 7.0 ^e µM	4.7 ± 1.1 µM	34 ± 1.9 ^c µM	34 ± 0 ^c µM	–	–	–	–	–
OCc1cn(-c2ccc(F)cc2)nc1-c1ccc(Cl)cc1 [TPN-0073583]	> 20 µM	>100 ^d µM	–	5.8 ± 0.4 µM	57 ± 28 µM	66 ± 29 µM	–	–	–	–	–	–	–	–	–	–	–
